Key:
CD8+ T cells = experiment: In vitro immunogenicity: T-cell priming with aAPCs loaded with peptide/MHC complexes and anti-CD28 antibody, pMHC multimer readout (Tables 19A, 19B); type: cell-based, human; details: in vitro immunogenicity of HLA class I peptides, pMHC multimer readout after priming of CD8+ T cells
Procedure: In an aspect, the peptides are pre-screened for immunogenicity before being included in the warehouse. By way of example, and not limitation, the immunogenicity of the peptides included in the warehouse is determined by a method comprising in vitro T-cell priming through repeated stimulations of CD8+ T cells from healthy donors with artificial antigen presenting cells loaded with peptide/MHC complexes and anti-CD28 antibody.
In order to obtain information regarding the immunogenicity of the TUMAPs of the present invention, the inventors performed investigations using an in vitro T-cell priming assay based on repeated stimulations of CD8+ T cells with artificial antigen presenting cells (aAPCs) loaded with peptide/MHC complexes and anti-CD28 antibody.
In order to perform in vitro stimulations by artificial antigen presenting cells loaded with peptide-MHC complex (pMHC) and anti-CD28 antibody, the inventors first isolated CD8+ T cells from fresh HLA-A*02 leukapheresis products via positive selection using CD8 microbeads (Miltenyi Biotec, Bergisch-Gladbach, Germany) of healthy donors obtained from the University clinics Mannheim, Germany, after informed consent.
PBMCs and isolated CD8+ lymphocytes were incubated in T-cell medium (TCM) until use consisting of RPMI-Glutamax (Invitrogen, Karlsruhe, Germany) supplemented with 10% heat inactivated human AB serum (PAN-Biotech, Aidenbach, Germany), 100 U/ml Penicillin/100 μg/ml Streptomycin (Cambrex, Cologne, Germany), 1 mM sodium pyruvate (CC Pro, Oberdorla, Germany), 20 μg/ml Gentamycin (Cambrex). 2.5 ng/ml IL7 (PromoCell, Heidelberg, Germany) and 10 U/ml IL-2 (Novartis Pharma, Nurnberg, Germany) were also added to the TCM at this step.
Generation of pMHC/anti-CD28 coated beads, T-cell stimulations and readout was performed in a highly defined in vitro system using four different pMHC molecules per stimulation condition and 8 different pMHC molecules per readout condition.
The purified co-stimulatory mouse IgG2a anti human CD28 Ab 9.3 (Jung et al., 1987) was chemically biotinylated using Sulfo-N-hydroxysuccinimidobiotin as recommended by the manufacturer (Perbio, Bonn, Germany). Beads used were 5.6 μm diameter streptavidin coated polystyrene particles (Bangs Laboratories, Illinois, USA).
pMHC used for positive and negative control stimulations were A*0201/MLA-001 (peptide […] (SEQ ID NO. 303) from modified Melan-A/MART-1) and A*0201/DDX5-001 ([…] from DDX5, SEQ ID NO. 304), respectively.
800.000 beads/200 μl were coated in 96-well plates in the presence of 4×12.5 ng different biotin-pMHC, washed and 600 ng biotin anti-CD28 were added subsequently in a volume of 200 μl. Stimulations were initiated in 96-well plates by co-incubating […] CD8+ T cells with 2×10^5 washed coated beads in 200 μl TCM supplemented with 5 ng/ml IL-12 (PromoCell) for 3 days at 37° C. Half of the medium was then exchanged by fresh TCM supplemented with 80 U/ml IL-2 and incubating was continued for 4 days at 37° C. This stimulation cycle was performed for a total of three times. For the pMHC multimer readout using 8 different pMHC molecules per condition, a two-dimensional combinatorial coding approach was used as previously described (Andersen et al., 2012) with minor modifications encompassing coupling to 5 different fluorochromes. Finally, multimeric analyses were performed by staining the cells with Live/dead near IR dye (Invitrogen, Karlsruhe, Germany), CD8-FITC antibody clone SK1 (BD, Heidelberg, Germany) and fluorescent pMHC multimers. For analysis, a BD LSRII SORP cytometer equipped with appropriate lasers and filters was used. Peptide specific cells were calculated as percentage of total CD8+ cells. Evaluation of multimeric analysis was done using the FlowJo software (Tree Star, Oreg., USA). In vitro priming of specific multimer+ CD8+ lymphocytes was detected by comparing to negative control stimulations.

HLA-A*02 = experiment: MHC binding assay, UV-ligand exchange with β2m ELISA, HLA-A*02 (Table 20); parameters: species or system human; details: binding to HLA-A*02 ranged by peptide exchange yield (UV-ligand exchange, β2m ELISA)
Summary of the method: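 Peptide–MHC complexes made by UV-ligand exchange of a UV-cleavable peptide, diluted 100-fold and captured on streptavidin plates. Stabilized complexes detected by HRP anti-β2m ELISA (1 h, 37° C, A450). Exchange yield derived against refolded HLA-A*02:01/MLA-001 monomer standards (15-500 ng/ml).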

HLA-A*24 = experiment: MHC binding assay, UV-ligand exchange with β2m ELISA, HLA-A*24 (Table 21); parameters: species or system human; details: binding to HLA-A*24 ranged by peptide exchange yield (UV-ligand exchange, β2m ELISA)
Text: Candidate peptides for T cell based therapies according to the present invention were further tested for their MHC binding capacity (affinity). The individual peptide-MHC complexes were produced by UV-ligand exchange, where a UV-sensitive peptide is cleaved upon UV-irradiation, and exchanged with the peptide of interest as analyzed. Only peptide candidates that can effectively bind and stabilize the peptide-receptive MHC molecules prevent dissociation of the MHC complexes. To determine the yield of the exchange reaction, an ELISA was performed based on the detection of the light chain ((β2m) of stabilized MHC complexes. The assay was performed as generally described in Rodenko et al. (Rodenko et al., 2006).
96 well MAXISorp plates (NUNC) were coated over night with 2 ug/ml streptavidin in PBS at room temperature, washed 4× and blocked for 1 h at 37° C. in 2% BSA containing blocking buffer. Refolded HLA-A*02:01/MLA-001 monomers served as standards, covering the range of 15-500 ng/ml. Peptide-MHC monomers of the UV-exchange reaction were diluted 100 fold in blocking buffer. Samples were incubated for 1 h at 37° C., washed four times, incubated with 2 ug/ml HRP conjugated anti-β2m for 1 h at 37° C., washed again and detected with TMB solution that is stopped with […]. Absorption was measured at 450 nm. Candidate peptides that show a high exchange yield (preferably higher than 50%, most preferred higher than 75%) are generally preferred for a generation and production of antibodies or fragments thereof, and/or T cell receptors or fragments thereof, as they show sufficient avidity to the MHC molecules and prevent dissociation of the MHC complexes.

Peptide exchange (HLA-A*02) | Peptide exchange (HLA-A*24) | Substance | Wells positive [%] (CD8+ T cells)
+++ (50%-75% = +++) |  | 144 (ALLAFFPGL; listed as Homo sapiens) [compound 144] | +++ (50%-69% = +++)
+++ (50%-75% = +++) |  | 149 (ILNTHITEL; listed as Homo sapiens) [compound 149] | + (<20% = +)
+++ (50%-75% = +++) |  | 150 (VLYDRPLKI; listed as Homo sapiens) [compound 150] | ++ (20%-49% = ++)
++ (20%-49% = ++) |  | 151 (SVLDSTAKV; listed as Homo sapiens) [compound 151] | ++ (20%-49% = ++)
 | ++++ (≧75% = ++++) | 158 (HYSQELSLLYL; listed as Homo sapiens) [compound 158] | + (<20% = +)
 | ++++ (≧75% = ++++) | 159 (LYNKGFIYL; listed as Homo sapiens) [compound 159] | ++++ (≧70% = ++++)
 | ++++ (≧75% = ++++) | 160 (VYTLDIPVL; listed as Homo sapiens) [compound 160] | ++ (20%-49% = ++)
 | ++++ (≧75% = ++++) | 161 (IYLVSIPEL; listed as Homo sapiens) [compound 161] | ++ (20%-49% = ++)
 | +++ (50%-75% = +++) | 162 (VFTRVSSFL; listed as Homo sapiens) [compound 162] | ++ (20%-49% = ++)
 | ++++ (≧75% = ++++) | 163 (DYLKGLASF; listed as Homo sapiens) [compound 163] | + (<20% = +)
 | ++++ (≧75% = ++++) | 165 (DYTTWTALL; listed as Homo sapiens) [compound 165] | + (<20% = +)
 | ++++ (≧75% = ++++) | 166 (YYVESGKLF; listed as Homo sapiens) [compound 166] | +++ (50%-69% = +++)
 | ++++ (≧75% = ++++) | 167 (NYINRILKL; listed as Homo sapiens) [compound 167] | + (<20% = +)
 | ++++ (≧75% = ++++) | 168 (KYQDILETI; listed as Homo sapiens) [compound 168] | ++ (20%-49% = ++)
 | +++ (50%-75% = +++) | 169 (AYTLIAPNI; listed as Homo sapiens) [compound 169] | +++ (50%-69% = +++)
 | ++++ (≧75% = ++++) | 173 (IYSWILDHF; listed as Homo sapiens) [compound 173] | ++ (20%-49% = ++)
 | +++ (50%-75% = +++) | 176 (EYNQWFTKL; listed as Homo sapiens) [compound 176] | +++ (50%-69% = +++)
 | +++ (50%-75% = +++) | 196 (LYIDRPLPYL; listed as Homo sapiens) [compound 196] | ++++ (≧70% = ++++)

Peptide exchange (HLA-A*02) | Peptide exchange (HLA-A*24) | Substance | Wells positive [%] (CD8+ T cells)
 | +++ (50%-75% = +++) | 197 (EYSLFPGQVVI; listed as Homo sapiens) [compound 197] | + (<20% = +)
 | +++ (50%-75% = +++) | 199 (RYAEEVGIF; listed as Homo sapiens) [compound 199] | ++ (20%-49% = ++)
 | +++ (50%-75% = +++) | 200 (YYGPSLFLL; listed as Homo sapiens) [compound 200] | ++ (20%-49% = ++)
 | ++++ (≧75% = ++++) | 204 (TYELRYFQI; listed as Homo sapiens) [compound 204] | + (<20% = +)
 | ++ (20%-49% = ++) | 207 (AYVVFVSTL; listed as Homo sapiens) [compound 207] | + (<20% = +)
 | +++ (50%-75% = +++) | 218 (YYKSTSSAF; listed as Homo sapiens) [compound 218] | + (<20% = +)
 | +++ (50%-75% = +++) | 222 (TFSVSSHLF; listed as Homo sapiens) [compound 222] | ++ (20%-49% = ++)
++++ (≧75% = ++++) |  | 229 (AILAHLNTV; listed as Homo sapiens) [compound 229] | ++ (20%-49% = ++)
++ (20%-49% = ++) |  | 230 (KLQNIMMLL; listed as Homo sapiens) [compound 230] | ++++ (≧70% = ++++)
+++ (50%-75% = +++) |  | 232 (KIFPAALQLV; listed as Homo sapiens) [compound 232] | ++ (20%-49% = ++)
+++ (50%-75% = +++) |  | 233 (HLFDAFVSV; listed as Homo sapiens) [compound 233] | ++ (20%-49% = ++)
+++ (50%-75% = +++) |  | 235 (KIIDFLSAL; listed as Homo sapiens) [compound 235] | +++ (50%-69% = +++)
+++ (50%-75% = +++) |  | 247 (ALYEGYATV; listed as Homo sapiens) [compound 247] | ++ (20%-49% = ++)
++++ (≧75% = ++++) |  | 248 (YLDRFLAGV; listed as Homo sapiens) [compound 248] | ++ (20%-49% = ++)
++++ (≧75% = ++++) |  | 249 (GLCERLVSL; listed as Homo sapiens) [compound 249] | + (<20% = +)
+++ (50%-75% = +++) |  | 251 (ALSVLRLAL; listed as Homo sapiens) [compound 251] | ++ (20%-49% = ++)
 | +++ (50%-75% = +++) | 268 (QYLGQIQHI; listed as Homo sapiens) [compound 268] | + (<20% = +)
 | +++ (50%-75% = +++) | 269 (YFIDSTNLKTHF; listed as Homo sapiens) [compound 269] | + (<20% = +)

From patent US20170189504A1, “NOVEL PEPTIDES AND COMBINATION OF PEPTIDES FOR USE IN IMMUNOTHERAPY AGAINST VARIOUS CANCERS” (immatics biotechnologies GmbH, priority 2015, published 2017)
